The values below come from patent US9103820B2 (priority 2004, dated 2015).

Assay [1] deals with His-tagged Stx 2B-subunit (Escherichia phage 933W, UniProt P09386). The assay can be described thus: biochemical. It counts as binding, Escherichia coli O157:H7.
The next assay concerns the target STX. As to conditions: read-out: affinity (Kd) for STX; cited from earlier work.

Positions of bridges follow the written chain, without caps; N, C: chain ends. Non-standard residues stand in square brackets, D forms with d. Chains are numbered I, II in the order given. No end group written: not given here. ξ: configuration not given here. ξK = NCCCCC(N)C(=O)O; Ahx = NCCCCCC(=O)O

Sequence of His-tagged Stx 2B-subunit (P09386 20-89 limits assumed): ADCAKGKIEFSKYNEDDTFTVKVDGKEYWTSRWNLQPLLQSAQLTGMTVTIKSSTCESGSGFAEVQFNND

The substance “I: MAKRRNPRRA[Ahx][ξK][ξK] / II: MAKRRNPRRA[Ahx][ξK] / III: MAKRRNPRRA[Ahx] / IV: MAKRRNPRRA[Ahx] (amide I:12-IV:C, I:13-II:C, II:12-III:C) [KRRNPRR]” came in with a dissociation constant Kd in assay [1] of 2.1 µM.
In assay [1], “I: MAPPRRNRRA[Ahx][ξK][ξK] / II: MAPPRRNRRA[Ahx][ξK] / III: MAPPRRNRRA[Ahx] / IV: MAPPRRNRRA[Ahx] (amide I:12-IV:C, I:13-II:C, II:12-III:C) [PPRRNRR]” returned a Kd of 2.7 µM.
For “Galα(1-4)-Galβ(1-4)-G1cβ1- [globo3 sugar]”, the Kd at STX is 1000 µM.
In assay [1], “I: MAPPPRRRRA[Ahx][ξK][ξK] / II: MAPPPRRRRA[Ahx][ξK] / III: MAPPPRRRRA[Ahx] / IV: MAPPPRRRRA[Ahx] (amide I:12-IV:C, I:13-II:C, II:12-III:C) [PPPRRRR]” yielded a Kd of 3.2 µM.
In assay [1], “I: MAFRRNRRNA[Ahx][ξK][ξK] / II: MAFRRNRRNA[Ahx][ξK] / III: MAFRRNRRNA[Ahx] / IV: MAFRRNRRNA[Ahx] (amide I:12-IV:C, I:13-II:C, II:12-III:C) [FRRNRRN]” returned a Kd of 1.7 µM.

Usually Kd stands for a measure of binding affinity in units of concentration.
